Results as given in US20170190671A1, “BIS(ARYL)CATECHOL DERIVATIVES AS HERBICIDES” (E I DU PONT DE NEMOURS AND COMPANY, priority 2014, published 2017).

Legend:
Type in all cases: in vivo
[1] = system: ducksalad (Heteranthera limosa); assay: Test B flooded paddy; details: Heteranthera limosa, 336 h; 250 g ai/ha, Flood, 13 to 15 days, scale 0 (no effect) to 100 (complete control); read-out: Plant response rating, Ducksalad
How it was run: (§1)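 Compound was added to standing water 3 cm above soil, flood maintained, and plants held in a greenhouse before visual scoring against controls at 13 to 15 days.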

[2] = system: rice (Oryza sativa); assay: Test B flooded paddy; details: Oryza sativa, 336 h; 250 g ai/ha, Flood, 13 to 15 days, scale 0 (no effect) to 100 (complete control); read-out: Plant response rating, Rice
How it was run: as §1

[3] = system: sedge, umbrella (small-flower umbrella sedge, Cyperus difformis); assay: Test B flooded paddy; details: Cyperus difformis, 336 h; 250 g ai/ha, Flood, 13 to 15 days, scale 0 (no effect) to 100 (complete control); read-out: Plant response rating, Sedge, Umbrella
How it was run: as §1

[4] = system: barnyardgrass (Echinochloa crus-galli); assay: Test B flooded paddy; details: Echinochloa crus-galli, 336 h; 250 g ai/ha, Flood, 13 to 15 days, scale 0 (no effect) to 100 (complete control); read-out: Plant response rating, Barnyardgrass
How it was run: as §1

[5] = system: kochia (Kochia scoparia); assay: Test A preemergence; details: Bassia scoparia, pre-emergence, 240 h, 1000 g ai/ha, 0 to 100 scale, read-out: Plant response rating, Kochia
How it was run: (§2)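 Greenhouse pot test, loam/sand soil. Formulation: non-phytotoxic solvent mix plus surfactant. Pre: directed spray onto soil after sowing. Post: plants at 1–2 leaf, 2–10 cm. Rated visually vs untreated controls at ~10 d, 0 (no effect) to 100 (complete control).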

[6] = system: Italian ryegrass (Lolium multiflorum); assay: Test A preemergence; details: Lolium multiflorum, pre-emergence, 240 h, 1000 g ai/ha, 0 to 100 scale, read-out: Plant response rating, Ryegrass, Italian
How it was run: as §2

[7] = system: barnyardgrass (Echinochloa crus-galli); assay: Test A preemergence; details: Echinochloa crus-galli, pre-emergence, 240 h, 1000 g ai/ha, 0 to 100 scale, read-out: Plant response rating, Barnyardgrass
How it was run: as §2

[8] = system: ragweed (common ragweed, Ambrosia elatior); assay: Test A preemergence; details: Ambrosia artemisiifolia, pre-emergence, 240 h, 1000 g ai/ha, 0 to 100 scale, read-out: Plant response rating, Ragweed
How it was run: as §2

[9] = system: giant foxtail (Setaria faberii); assay: Test A preemergence; details: Setaria faberi, pre-emergence, 240 h, 1000 g ai/ha, 0 to 100 scale, read-out: Plant response rating, Foxtail, Giant
How it was run: as §2

[10] = system: pigweed (Amaranthus retroflexus); assay: Test A preemergence; details: Amaranthus retroflexus, pre-emergence, 240 h, 1000 g ai/ha, 0 to 100 scale, read-out: Plant response rating, Pigweed
How it was run: as §2

[11] = system: galium (catchweed bedstraw, Galium aparine); assay: Test C postemergence; details: Galium, post-emergence, 336 h, Postemergence, scale 0 to 100, read-out: Plant response rating, Galium; for pest or weed control at 31 g/ha: 31 g ai/ha; for pest or weed control at 62 g/ha: 62 g ai/ha; for pest or weed control at 125 g/ha: 125 g ai/ha; for pest or weed control at 250 g/ha: 250 g ai/ha
How it was run: (§3)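 Visual ratings were made 13-15 days after treatment in the greenhouse, scored 0-100 against controls, where 100 means complete control. Treatments used a surfactant-containing non-phytotoxic solvent formulation, applied preemergence to seeds in loam-sand soil or postemergence to 2-18 cm plants (1-4 leaves) in peat-based medium.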

[12] = system: morningglory (Ipomoea coccinea); assay: Test C postemergence; details: Ipomoea, post-emergence, 336 h, Postemergence, scale 0 to 100, read-out: Plant response rating, Morningglory; for pest or weed control at 31 g/ha: 31 g ai/ha; for pest or weed control at 62 g/ha: 62 g ai/ha; for pest or weed control at 125 g/ha: 125 g ai/ha; for pest or weed control at 250 g/ha: 250 g ai/ha
How it was run: as §3

[13] = system: giant foxtail (Setaria faberii); assay: Test C postemergence; details: Setaria faberi, post-emergence, 336 h, Postemergence, scale 0 to 100, read-out: Plant response rating, Foxtail, Giant; for pest or weed control at 31 g/ha: 31 g ai/ha; for pest or weed control at 62 g/ha: 62 g ai/ha; for pest or weed control at 125 g/ha: 125 g ai/ha; for pest or weed control at 250 g/ha: 250 g ai/ha
How it was run: as §3

[14] = system: kochia (Kochia scoparia); assay: Test A postemergence; details: Bassia scoparia, post-emergence, 240 h, 1000 g ai/ha, 0 to 100 scale, read-out: Plant response rating, Kochia
How it was run: as §2

[15] = system: galium (catchweed bedstraw, Galium aparine); assay: Test A postemergence; details: Galium, post-emergence, 240 h, 1000 g ai/ha, 0 to 100 scale, read-out: Plant response rating, Galium
How it was run: as §2

[16] = system: corn (Zea mays); assay: Test A postemergence; details: Zea mays, post-emergence, 240 h, 1000 g ai/ha, 0 to 100 scale
How it was run: as §2

[17] = system: Italian ryegrass (Lolium multiflorum); assay: Test A postemergence; details: Lolium multiflorum, post-emergence, 240 h, 1000 g ai/ha, 0 to 100 scale, read-out: Plant response rating, Ryegrass, Italian
How it was run: as §2

[18] = system: barnyardgrass (Echinochloa crus-galli); assay: Test A postemergence; details: Echinochloa crus-galli, post-emergence, 240 h, 1000 g ai/ha, 0 to 100 scale, 0 no effect, 100 complete control, read-out: Plant response rating, Barnyardgrass
How it was run: as §2

[19] = system: ragweed (common ragweed, Ambrosia elatior); assay: Test A postemergence; details: Ambrosia artemisiifolia, post-emergence, 240 h, 1000 g ai/ha, 0 to 100 scale, read-out: Plant response rating, Ragweed
How it was run: as §2

[20] = system: blackgrass (Alopecurus myosuroides); assay: Test A postemergence; details: Alopecurus myosuroides, post-emergence, 240 h, 1000 g ai/ha, 0 to 100 scale, read-out: Plant response rating, Blackgrass
How it was run: as §2

[21] = system: giant foxtail (Setaria faberii); assay: Test A postemergence; details: Setaria faberi, post-emergence, 240 h, 1000 g ai/ha, 0 to 100 scale, read-out: Plant response rating, Foxtail, Giant
How it was run: as §2

[22] = system: wheat (Triticum aestivum); assay: Test A postemergence; details: Triticum aestivum, post-emergence, 240 h, 1000 g ai/ha, 0 to 100 scale, read-out: Plant response rating, Wheat
How it was run: as §2

[23] = system: pigweed (Amaranthus retroflexus); assay: Test A postemergence; details: Amaranthus retroflexus, post-emergence, 240 h, 1000 g ai/ha, 0 to 100 scale, read-out: Plant response rating, Pigweed
How it was run: as §2

Structure (SMILES)	pest or weed control at 250 g/ha [1]	plant injury at 250 g/ha [2]	pest or weed control at 250 g/ha [3]	pest or weed control at 250 g/ha [4]	pest or weed control at 1000 g/ha [5]	pest or weed control at 1000 g/ha [6]	pest or weed control at 1000 g/ha [7]	pest or weed control at 1000 g/ha [8]	pest or weed control at 1000 g/ha [9]	pest or weed control at 1000 g/ha [10]	pest or weed control at 31 g/ha [11]	pest or weed control at 62 g/ha [11]	pest or weed control at 125 g/ha [11]	pest or weed control at 250 g/ha [11]	pest or weed control at 31 g/ha [12]	pest or weed control at 62 g/ha [12]	pest or weed control at 125 g/ha [12]	pest or weed control at 250 g/ha [12]	pest or weed control at 31 g/ha [13]	pest or weed control at 62 g/ha [13]	also measured
Clc1cnc(Oc2cccc(Cl)c2Oc2ncc(Br)cn2)nc1 [Compound 17, 5-bromo-2-[2-chloro-6-[(5-chloro-2-pyrimidinyl)oxy]phenoxy]pyrimidine]	100%	35%	100%	20%	100%	100%	100%	100%	100%	100%	70%	80%	90%	95%	90%	90%	85%	70%	5%	15%	pest or weed control at 125 g/ha [13]: 10%; pest or weed control at 250 g/ha [13]: 40%; pest or weed control at 1000 g/ha [14]: 100%; pest or weed control at 1000 g/ha [15]: 100%; Corn plant response rating (crop injury, 0 = no effect, 100 = complete kill) at 1000 g/ha [16]: 100%; pest or weed control at 1000 g/ha [17]: 100%; pest or weed control at 1000 g/ha [18]: 100%; pest or weed control at 1000 g/ha [19]: 90%; pest or weed control at 1000 g/ha [20]: 100%; pest or weed control at 1000 g/ha [21]: 100%; plant injury at 1000 g/ha [22]: 100%; pest or weed control at 1000 g/ha [23]: 100%
Fc1cnc(Oc2c(Cl)cccc2Oc2ncc(Cl)cn2)nc1 [Compound 18, 5-chloro-2-[5-chloro-6-[(5-fluoro-2-pyrimidinyl)oxy]phenoxy]pyrimidine]	100%	80%	100%	50%	100%	70%	100%	30%	100%	100%	70%	90%	95%	95%	75%	70%	85%	95%	15%	5%	pest or weed control at 125 g/ha [13]: 25%; pest or weed control at 250 g/ha [13]: 45%; pest or weed control at 1000 g/ha [14]: 100%; pest or weed control at 1000 g/ha [15]: 100%; Corn plant response rating (crop injury, 0 = no effect, 100 = complete kill) at 1000 g/ha [16]: 50%; pest or weed control at 1000 g/ha [17]: 100%; pest or weed control at 1000 g/ha [18]: 80%; pest or weed control at 1000 g/ha [19]: 20%; pest or weed control at 1000 g/ha [20]: 100%; pest or weed control at 1000 g/ha [21]: 100%; plant injury at 1000 g/ha [22]: 50%; pest or weed control at 1000 g/ha [23]: 100%
